Assay [1] relates to Rattus norvegicus. The assay can be described thus: Induction of diuresis activity in Rattus norvegicus albino (rat) assessed as urinary excretion at 1000 mg/kg, po measured at 5-18 hr after drug administration by standard Lipschitz method against frusemide-treated control (reference value: 0.2 no unit). It counts as functional, Urine.
In assay [2] the test system is Rattus norvegicus. The assay can be described thus: Induction of diuresis action in Rattus norvegicus albino (rat) assessed as urinary excretion at 1000 mg/kg, po measured at 5-18 hr after drug administration by standard Lipschitz method against untreated control (reference value: 1 no unit). The class given is functional, Urine.
The subject of assay [3] is Rattus norvegicus. The assay can be described thus: Induction of diuresis activity in Rattus norvegicus albino (rat) assessed as urinary excretion at 1000 mg/kg, po measured at 0-5 hr after drug administration by standard Lipschitz method against frusemide-treated control (reference value: 0.5 no unit). The class given is functional, Urine.
In assay [4] the test system is Rattus norvegicus. The assay can be described thus: Induction of diuresis action in Rattus norvegicus albino (rat) assessed as urinary excretion at 1000 mg/kg, po measured at 0-5 hr after drug administration by standard Lipschitz method against untreated control (reference value: 1 no unit). It counts as functional, Urine.
Assay [5] relates to Rattus norvegicus. The assay is described as follows: Induction of diuresis in Rattus norvegicus albino (rat) assessed as urinary Cl- excretion at 1000 mg/kg, po measured at 5-18 hr after drug administration by standard Lipschitz method (reference value: 0.38 +/-0.011 mEq/L). The class given is functional, Urine.
For assay [6], the system named is Rattus norvegicus. The assay can be described thus: Induction of diuresis in Rattus norvegicus albino (rat) assessed as urinary K+ excretion at 1000 mg/kg, po measured at 5-18 hr after drug administration by standard Lipschitz method (reference value: 0.22 +/-0.004 mEq/L). The class given is functional, Urine.
For assay [7], the system named is Rattus norvegicus. The assay is described as follows: Induction of diuresis in Rattus norvegicus albino (rat) assessed as urinary Na+ excretion at 1000 mg/kg, po measured at 5-18 hr after drug administration by standard Lipschitz method (reference value: 0.65 +/-0.006 mEq/L). It counts as functional, Urine.
Assay [8] has as its system Rattus norvegicus. The assay can be described thus: Induction of diuresis in Rattus norvegicus albino (rat) assessed as urinary Na+ excretion at 1000 mg/kg, po measured at 0-5 hr after drug administration by standard Lipschitz method (reference value: 0.90 +/-0.003 mEq/L). It counts as functional, Urine.
Assay [9] concerns Rattus norvegicus. The assay is described as follows: Induction of diuresis in Rattus norvegicus albino (rat) assessed as urinary excretion at 1000 mg/kg, po measured at 5-18 hr after drug administration by standard Lipschitz method (reference value: 50.4%). The class given is functional, Urine.
The test system of assay [10] is Rattus norvegicus. The assay can be described thus: Induction of diuresis in Rattus norvegicus albino (rat) assessed as normal saline intake at 1000 mg/kg, po measured at 5-18 hr after drug administration by standard Lipschitz method (reference value: 2.50 +/-0.036 ml). It counts as functional.
For assay [11], the system named is Rattus norvegicus. The assay is described as follows: Induction of diuresis in Rattus norvegicus albino (rat) assessed as total urinary output at 1000 mg/kg, po measured at 5-18 hr after drug administration by standard Lipschitz method (reference value: 1.26 +/-0.049 ml). The class given is functional, Urine.
In assay [12] the test system is Rattus norvegicus. The assay is described as follows: Induction of diuresis in Rattus norvegicus albino (rat) assessed as urinary excretion at 1000 mg/kg, po measured at 0-5 hr after drug administration by standard Lipschitz method (reference value: 98.40%). It counts as functional, Urine.
For assay [13], the system named is Rattus norvegicus. The assay is described as follows: Induction of diuresis in Rattus norvegicus albino (rat) assessed as urinary Cl- excretion at 1000 mg/kg, po measured at 0-5 hr after drug administration by standard Lipschitz method (reference value: 0.46 +/-0.005 mEq/L). It counts as functional, Urine.
In assay [14] the test system is Rattus norvegicus. The assay is described as follows: Induction of diuresis in Rattus norvegicus albino (rat) assessed as urinary K+ excretion at 1000 mg/kg, po measured at 0-5 hr after drug administration by standard Lipschitz method (reference value: 0.46 +/-0.006 mEq/L). The class given is functional, Urine.
For assay [15], the system named is Rattus norvegicus. The assay can be described thus: Induction of diuresis in Rattus norvegicus albino (rat) assessed as normal saline intake at 1000 mg/kg, po measured at 0-5 hr after drug administration by standard Lipschitz method (reference value: 2.50 +/-0.036 ml). The class given is functional.
The subject of assay [16] is Rattus norvegicus. The assay can be described thus: Induction of diuresis in Rattus norvegicus albino (rat) assessed as total urinary output at 1000 mg/kg, po measured at 0-5 hr after drug administration by standard Lipschitz method (reference value: 2.46 +/-0.125 ml). The class given is functional, Urine.

For `NC(N)=O` [UREA], the Ratio stood at 0.93 with Rattus norvegicus [1], 4.6 in the assay on Rattus norvegicus [2], 0.96 in the assay on Rattus norvegicus [3] and 1.9 in the assay with Rattus norvegicus [4]. Moreover, the Activity in the assay on Rattus norvegicus [5] was found to be 1.94 mEq/L; in the assay with Rattus norvegicus [6] it was 2.82 mEq/L; with Rattus norvegicus [7], 2.82 mEq/L; with Rattus norvegicus [8] it was 1.91 mEq/L; with Rattus norvegicus [9], 230.76%; in the assay on Rattus norvegicus [10] it was 2.73 mL. The Activity in the assay with Rattus norvegicus [11] came to 6.3 mL; with Rattus norvegicus [12], 187.91%; in the assay on Rattus norvegicus [13], 0.95 mEq/L; in the assay on Rattus norvegicus [14], 0.94 mEq/L; in the assay on Rattus norvegicus [15], 2.73 mL; in the assay on Rattus norvegicus [16] it was 5.13 mL.

The values are drawn from ChEMBL document CHEMBL3046926, “Molecular properties prediction, synthesis, and diuretic activity of phenoxy acetic acid bearing pyrazolines” (2013).
